Experimental data published in patent publication US12168665B2, “Substituted imidazo[l,2-a]pyrazines and pyrazino[l,2-a] pyrimidines as topical agents for dermatological applications” (Genesis Molecular Technologies, Inc., priority 2020, dated 2024).
“Also recorded” adds a separate entry of the source. Like-named read-outs stand apart in the source and are kept apart here.

Assays:
[1] = system: TCF/LEF reporter activity; experiment: Wnt/driven TCF/LEF reporter (Luc) activity in HEK293 cell line assay; type: cell-based; conditions: TCF/LEF reporter (Luc)-HEK293 cells, LiCl and mouse Wnt3a stimulation, read-out: IC50 value of compounds against TCF/LEF reporter activity
Method: Assay of Wnt/driven TCF/LEF reporter (Luc) activity in a stably transfected cell line. The Wnt/driven TCF/LEF reporter (Luc) activity in a stably transfected cell line assay was performed at BPS Bioscience (San Diego, CA 92121, USA). In brief, TCF/LEF reporter (Luc)-HEK293 cells are harvested from culture in growth medium and seeded at a density of about 35,000 cells per well into a white clear-bottom 96-well microplate in 80 μL of assay medium. 20 μL of 50 mM LiCl solution in assay medium are added to each well (final concentration 10 mM), and cells are incubated at 37° C. in a CO2 incubator for 16 hours. 10 μL of threefold serial dilution of mouse Wnt3a in assay medium are added to each stimulated well. The plate is incubated at 37° C. in a CO2 incubator for 6 hours. 100 μL of ONE-Step™ Luciferase Assay buffer per well are added and the plate is shaken for 30 min prior to measuring luminescence using a luminometer.
Exemplary compounds, wherein Y is hydrogen, of the present invention were tested for Wnt/driven TCF/LEF reporter (Luc) activity in HEK293 cell line assay. […] The positive control compound for this assay is IWR-1-endo, which is known in the art as a non-CBP/β-catenin Wnt antagonist, which stabilizes Axin-dependent β-catenin destruction (Chen, B., et al., Nat. Chem. Biol. 2009; 5(2):100-107).

[2] = system: CBP/β-catenin (Wnt-driven luciferase activity); experiment: SuperTOPFLASH cell-based luciferase assay (Hek293, STF1.1); conditions: Homo sapiens; Hek293 STF1.1 cells; tested at 2.5, 5, 10 and 20 μM
Method: SuperTOPFLASH Cell-based Luciferase Assay. Hek-293,STF1.1 cells are maintained in DMEM, 10% FBS, Pen-Strep supplemented with 200 μg/mL G418. On the day prior to assay, cells are split into a white, opaque 96-well plate at 10,000 cells per well in 50 μL of complete medium without G418 (for screening of Wnt-signaling inhibitors, G418 can be left out during screening process). After allowing the cells to stabilize and attach overnight, 40 μL of complete medium (without G418) containing 2.5× final concentration of compound or DMSO control is added to the cells and allowed to incubate for 1 hour at 37° C., 5% CO2 prior to adding […] of a 100 mM LiCl solution prepared in complete medium (without G418). After 24 hours, 100 µL of BrightGlo™ (Promega, Cat. #: G7573) is added to each well and the plate is shaken for 5 minutes prior to reading on the Perkin-Elmer EnVision™ Plate Reader. […]

[3] = Stability by analytical HPLC analysis; type: physicochemical
Method: Analytical HPLC analysis was performed on an Agilent 1100 HPLC with a Phenomenex Luna C18 (2) column (3 micron, 150×4.6 mm id) at a flow rate of 0.6 mL/min, eluting with a binary solvent system A and B using a 35%-70% B in 20 min and then 70%-95% B in 5 min (gradient elution 1), or 70%-95% B in 25 min and then 95%-100% B in 3 min (gradient elution 2) (A: Milli-Q water with 0.1% TFA; B: CH3CN with 0.1% TFA). NMR spectra were recorded on a Bruker AV-300 300 MHz NMR instrument using DMSO-d6 or CDCl3 with TMS as an internal standard. Mass spectra data was obtained with Bruker Esquire Liquid Chromatography-Ion Trap Mass Spectrometer.
As is readily apparent, compound 6 is stable at room temperature both in a solid form and in organic solvents (e.g., CH3CN, and CH3OH).

human skin = experiment: Cosmetic evaluation on human skin, topical formulation; type: in vivo; conditions: 0.15% wt./wt. topical formulation twice daily, 8 weeks
Excerpt: For cosmetic evaluation, compound 6 (0.15% wt./wt.) formulated in an aqueous based vehicle was topically applied twice daily (0.25 g formulation per application) during an 8-week testing period according to the following daytime/nighttime regimen.
During the study, subjects used no other skin care regimen. Prior to application of the test formulation, subjects washed their faces with Purpose cleanser, rinsed and then dry patted their faces. For each daytime and each nighttime application, 0.25 g of the test formulation (2 pumps from an applicator) was then applied to the entire face, around the eyes and onto the neck. Photographs (without any face and eye make-up), and self-assessment was performed before and after the 8-week period.

[4] = system: hapten-induced atopic dermatitis-like dermatitis; conditions: preclinical study (Matsuda-Hirose 2019); cited from earlier work
[5] = animal toxicity studies and clinical studies; cited from earlier work

Work on `O=C1[C@H](Cc2ccc(O)cc2)N2C(=O)C[C@H](CO)N(C(=O)NCc3ccccc3)[C@H]2CN1Cc1cccc2ccccc12` [Compound 2, (2R,6S,9aS)—N-benzyl-6-(4-hydroxybenzyl)-2-(hydroxymethyl)-8-(naphthalen-1-ylmethyl)-4,7-dioxohexahydro-2H-pyrazino[1,2-a]pyrimidine-1(6H)-carboxamide] yielded an IC50 ([1]; Homo sapiens) greater than 25 µM.

Work on `O=C1[C@H](Cc2ccc(O)cc2)N2C(=O)C[C@@H](CO)N(C(=O)NCc3ccccc3)[C@H]2CN1Cc1cccc2ccccc12` [Compound 3, (2S,6S,9aS)—N-benzyl-6-(4-hydroxybenzyl)-2-(hydroxymethyl)-8-(naphthalen-1-ylmethyl)-4,7-dioxohexahydro-2H-pyrazino[1,2-a]pyrimidine-1(6H)-carboxamide] yielded an IC50 [2] of 2.5 µM and an IC50 ([1]; Homo sapiens) of 16 µM.

`O=C1[C@H](Cc2ccc(O)cc2)N2C(=O)[C@H](CO)N(C(=O)NCc3ccccc3)[C@H]2CN1Cc1cccc2ccccc12` [Compound 4, (2S,5S,8a5)-N-benzyl-5-(4-hydroxybenzyl)-2-(hydroxymethyl)-7-(naphthalen-1-ylmethyl)-3,6-dioxohexahydroimidazo[1,2-a]pyrazine-1(5H)-carboxamide] gave an IC50 ([1]; Homo sapiens) of 11.2 µM.

Work on `O=C1[C@H](Cc2ccc(O)cc2)N2C(=O)[C@@H](CCO)N(C(=O)NCc3ccccc3)[C@H]2CN1Cc1cccc2ccccc12` [Compound 5, (2R,5S,8a5)-N-benzyl-5-(4-hydroxybenzyl)-2-(2-hydroxyethyl)-7-(naphthalen-1-ylmethyl)-3,6-dioxohexahydroimidazo[1,2-a]pyrazine-1(5H)-carboxamide] yielded an IC50 ([1]; Homo sapiens) greater than 25 µM.

In the case of `CCCCCCCCCCCC(=O)OC[C@@H]1CC(=O)N2[C@H](CN(Cc3cccc4ccccc34)C(=O)[C@@H]2Cc2ccc(O)cc2)N1C(=O)NCc1ccccc1` [Compound 6, (2S,6S,9aS)-1-(benzylcarbamoyl)-6-(4-hydroxybenzyl)-8-(naphthalen-1-ylmethyl)-4,7-dioxooctahydro-2H-pyrazino[1,2-a]pyrimidin-2-yl)methyl dodecanoate], the “Degradation product detected by analytical HPLC” value ([3]; after 4 days at room temperature) is reported as “No degradation product”, the “Stability at room temperature” value ([3]; solid form and organic solvents (CH3CN, CH3OH), analytical HPLC) is reported as “stable” and the “Improvement of skin appearance (wrinkles, redness)” value (human skin) is reported as “improvement of skin appearance (e.g., reducing the appearance of wrinkles and redness) is achieved; also recorded: Skin improvement (e.g., reducing the extent and appearance of wrinkles) was visible”.

For `O=C1[C@H](Cc2ccc(O)cc2)N2C(=O)CCN(C(=O)NCc3ccccc3)[C@H]2CN1Cc1cccc2ccccc12` [ICG-001], the “Effect on hapten-induced atopic dermatitis-like dermatitis” value [4] is given as “prevents the emergence of hapten-induced atopic dermatitis-like dermatitis” and the “Safety at effective levels” value [5] is given as “extremely safe”.

For `O=C(Nc1cccc2cccnc12)c1ccc(N2C(=O)[C@@H]3[C@H](C2=O)[C@@H]2C=C[C@H]3C2)cc1` [IWR-1-endo, reference compound], the IC50 [1] was 0.2 µM.
